Test results published in the NIST ThermoML archive (doi:10.1016/j.tca.2012.11.004).
Numbers after ± are expanded uncertainties.

Assays:
[1] = refractive index (Na D-line) (dimensionless); details: 101.33 kPa, Liquid, Standard Abbe refractometry
[2] = 298.15 K; 101.33 kPa; Liquid; Vibrating tube method

refractive index ([1]; 298.1 K)	mass density [2]	refractive index ([1]; 298.15 K)	Compound
1.4358 ± 0.0007	936.38 ± 0.08 kg/m3		CC(=O)N(C)C [N,N-dimethylethanamide]
	998.94 ± 0.23 kg/m3	1.4302 ± 0.0007	CNC=O [N-methylformamide]
	943.9 ± 0.11 kg/m3	1.4281 ± 0.0007	CN(C)C=O [dimethylformamide]
	1129.16 ± 0.16 kg/m3	1.4465 ± 0.0007	NC=O [formamide]
